From PMC8707586, “New Inhibitors of Laccase and Tyrosinase by Examination of Cross-Inhibition between Copper-Containing Enzymes” (International Journal of Molecular Sciences, 2021)

Legend:
laccases [1] = test: Enzyme inhibitory kinetics, laccases from both sources together; format: biochemical, T. versicolor and A. oryzae; conditions: nonlinear fitting of enzyme kinetics
Description: (§1) Enzyme inhibitory kinetics—The velocities during the generation of the product for each enzyme were measured by varying the substrate and inhibitor concentrations. Simultaneous and nonlinear fitting of all profiles in an inhibitor minimized the Χ^2 value of the differences of theoretical and experimental values in the Michaelis–Menten equation, expressed with the competitive, uncompetitive, noncompetitive, and mixed models. […] The reduced Χ^2 values between the models were compared based on F-statistic to select the most appropriate model. All fittings and statistical analyses were conducted using MATLAB from MathWorks (Natick, MA, USA).

A. oryzae laccase [2] = test: Enzyme inhibitory kinetics, A. oryzae laccase; format: biochemical, Aspergillus oryzae; conditions: read-out: ** Ki, simulated inhibitory constant by nonlinear fitting assuming competitive inhibition
Description: as §1

laccases [3] = test: Laccase activity assay, statements on both laccases together; format: biochemical, T. versicolor and A. oryzae; conditions: 50 μM
Description: (§2) Enzyme activity with inhibitors—All chemical reagents were purchased from either Tokyo Chemical Industry (Tokyo, Japan), ChemBridge (San Diego, CA, USA), or Sigma-Aldrich (St. Louis, MO, USA). The reaction mixture for the tyrosinase assay comprised 20 nM tyrosinase and 500 µM L-DOPA in phosphate-buffered saline. The solution for the ceruloplasmin activity assay comprised 20 nM ceruloplasmin and 500 µM N,N-dimethyl-p-phenylenediamine (DMPD) in 100 mM of sodium acetate buffer at a pH of 5.5. The DBH activity assay was conducted in a reaction mixture containing 10 nM DBH, 500 µM DMPD, and 500 µM tyramine. The solution for the laccase activity assay comprised either 150 nM T. versicolor laccase or 350 nM A. oryzae laccase and 500 µM L-DOPA in 100 mM sodium phosphate buffer with a pH of 5.5. All the solutions included 0.01% Triton X-100 and 5% DMSO in the absence or presence of the inhibitor. After the addition of inhibitors, the solutions were incubated for 15 min at 30 °C. The absorbances of tyrosinase, laccase, ceruloplasmin, and DBH were measured at 475, 475, 550, and 515 nm, respectively, after the addition of substrate to the mixture solution, in a time-dependent manner. […] The Cheng–Prusoff equation with Km was employed to convert the IC50 value into the inhibitory constant, Ki, for each inhibitor [46].

A. oryzae laccase [4] = test: Laccase activity assay (L-DOPA substrate), A. oryzae; format: biochemical, Aspergillus oryzae; conditions: Ki from IC50 by Cheng–Prusoff, 0.01% Triton X-100
Description: as §2

mushroom tyrosinase [5] = target: T1, mushroom tyrosinase (Agaricus bisporus, UniProt C7FF04); test: Tyrosinase enzyme activity assay (L-DOPA substrate); format: biochemical
Description: as §2

mushroom tyrosinase [6] = target: T1, mushroom tyrosinase; parameters: method as in PMID 24074025; conditions: cited from earlier work
[7] = target: T2, dopamine-β-hydroxylase (DBH) (Homo sapiens, UniProt P09172); test: DBH activity assay (DMPD, tyramine); format: biochemical; conditions: for Ki: Ki from IC50 by Cheng–Prusoff
T2 construct: purchased
T2 sequence (P09172 1-617): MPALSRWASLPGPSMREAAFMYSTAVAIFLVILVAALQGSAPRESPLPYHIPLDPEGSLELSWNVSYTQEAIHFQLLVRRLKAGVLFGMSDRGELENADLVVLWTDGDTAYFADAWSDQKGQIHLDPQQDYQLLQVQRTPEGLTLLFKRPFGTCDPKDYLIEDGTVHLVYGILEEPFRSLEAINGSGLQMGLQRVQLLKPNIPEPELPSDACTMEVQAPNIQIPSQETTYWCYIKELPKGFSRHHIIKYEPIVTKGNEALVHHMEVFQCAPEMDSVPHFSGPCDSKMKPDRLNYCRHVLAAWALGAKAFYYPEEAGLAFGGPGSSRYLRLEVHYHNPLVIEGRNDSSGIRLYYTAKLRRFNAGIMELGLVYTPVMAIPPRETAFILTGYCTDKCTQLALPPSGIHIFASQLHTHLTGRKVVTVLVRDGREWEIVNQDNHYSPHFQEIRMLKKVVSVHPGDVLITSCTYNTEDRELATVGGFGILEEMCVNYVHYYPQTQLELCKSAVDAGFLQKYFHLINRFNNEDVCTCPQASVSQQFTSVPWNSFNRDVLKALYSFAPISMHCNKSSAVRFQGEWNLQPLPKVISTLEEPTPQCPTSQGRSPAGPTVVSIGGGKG
Description: as §2

T. versicolor laccase = target: T3, T. versicolor laccase (Trametes versicolor, UniProt Q12718); test: Laccase activity assay (L-DOPA substrate), T. versicolor; format: biochemical; conditions: Ki from IC50 by Cheng–Prusoff, 0.01% Triton X-100
T3 sequence (Q12718 21-519): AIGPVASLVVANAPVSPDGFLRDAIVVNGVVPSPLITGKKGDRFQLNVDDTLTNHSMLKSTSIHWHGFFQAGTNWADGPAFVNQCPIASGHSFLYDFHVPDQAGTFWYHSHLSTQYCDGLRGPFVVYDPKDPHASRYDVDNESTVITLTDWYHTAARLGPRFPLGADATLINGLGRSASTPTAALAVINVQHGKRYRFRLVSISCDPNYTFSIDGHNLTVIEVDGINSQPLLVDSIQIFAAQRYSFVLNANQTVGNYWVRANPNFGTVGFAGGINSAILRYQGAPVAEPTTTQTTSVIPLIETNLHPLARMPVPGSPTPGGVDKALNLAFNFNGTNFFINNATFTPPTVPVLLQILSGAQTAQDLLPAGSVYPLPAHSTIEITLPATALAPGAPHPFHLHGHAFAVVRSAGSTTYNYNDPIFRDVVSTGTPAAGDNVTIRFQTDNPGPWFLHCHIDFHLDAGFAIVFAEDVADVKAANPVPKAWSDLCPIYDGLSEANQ
Description: as §2

ceruloplasmin = target: T4, ceruloplasmin (Homo sapiens, UniProt P00450); test: Ceruloplasmin activity assay (DMPD substrate); format: biochemical; conditions: Ki from IC50 by Cheng–Prusoff
T4 construct: purchased
T4 sequence (P00450 20-1065): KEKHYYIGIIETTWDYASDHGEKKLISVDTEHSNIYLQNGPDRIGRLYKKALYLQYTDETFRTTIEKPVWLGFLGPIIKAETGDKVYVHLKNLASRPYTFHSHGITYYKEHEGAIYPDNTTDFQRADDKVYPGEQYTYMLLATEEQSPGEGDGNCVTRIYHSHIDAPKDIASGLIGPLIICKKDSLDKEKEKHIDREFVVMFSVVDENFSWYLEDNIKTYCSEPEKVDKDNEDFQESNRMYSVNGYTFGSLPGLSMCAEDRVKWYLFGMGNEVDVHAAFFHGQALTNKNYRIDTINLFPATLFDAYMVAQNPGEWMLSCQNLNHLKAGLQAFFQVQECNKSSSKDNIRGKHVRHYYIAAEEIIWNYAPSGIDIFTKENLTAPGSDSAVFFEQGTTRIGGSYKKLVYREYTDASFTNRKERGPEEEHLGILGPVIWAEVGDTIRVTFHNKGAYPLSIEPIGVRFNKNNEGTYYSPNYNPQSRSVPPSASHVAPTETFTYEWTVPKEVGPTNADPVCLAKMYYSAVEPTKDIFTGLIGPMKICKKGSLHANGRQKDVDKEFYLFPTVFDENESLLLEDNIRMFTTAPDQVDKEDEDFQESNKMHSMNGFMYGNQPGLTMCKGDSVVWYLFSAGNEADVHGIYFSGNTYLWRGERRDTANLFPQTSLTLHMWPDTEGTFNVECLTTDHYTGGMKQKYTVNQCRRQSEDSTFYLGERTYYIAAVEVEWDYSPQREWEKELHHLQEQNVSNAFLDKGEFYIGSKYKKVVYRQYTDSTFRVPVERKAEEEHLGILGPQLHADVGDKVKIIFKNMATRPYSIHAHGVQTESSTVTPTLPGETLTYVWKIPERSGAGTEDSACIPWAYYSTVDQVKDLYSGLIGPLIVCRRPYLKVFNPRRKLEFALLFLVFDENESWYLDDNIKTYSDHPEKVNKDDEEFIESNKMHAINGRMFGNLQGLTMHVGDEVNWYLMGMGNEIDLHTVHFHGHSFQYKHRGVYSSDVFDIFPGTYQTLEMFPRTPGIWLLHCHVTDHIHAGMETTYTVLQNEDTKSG
Description: as §2

T1 sequence (C7FF04 1-392): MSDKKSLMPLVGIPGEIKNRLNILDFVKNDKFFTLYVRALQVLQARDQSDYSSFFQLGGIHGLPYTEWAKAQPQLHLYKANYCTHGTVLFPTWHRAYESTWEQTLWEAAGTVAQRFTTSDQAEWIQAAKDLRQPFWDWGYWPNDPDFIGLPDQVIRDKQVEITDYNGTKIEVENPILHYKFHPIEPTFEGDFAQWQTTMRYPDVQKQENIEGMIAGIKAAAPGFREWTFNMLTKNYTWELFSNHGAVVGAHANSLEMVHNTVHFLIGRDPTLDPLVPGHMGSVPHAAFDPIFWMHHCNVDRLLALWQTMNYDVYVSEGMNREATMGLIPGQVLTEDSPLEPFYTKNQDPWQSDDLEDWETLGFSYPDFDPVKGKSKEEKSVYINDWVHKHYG

| Structure (SMILES) | Mechanism of inhibition (laccases [1]) | Ki (A. oryzae laccase [2]) [µM] | inhibitory activities against laccases (laccases [3]) | Ki (A. oryzae laccase [4]) [µM] | inhibition of DBH activity [7] | Ki [7] [µM] | other results |
| --- | --- | --- | --- | --- | --- | --- | --- |
| S=c1[nH]cnc2nc[nH]c12 [compound 1, mercaptopurine] | Competitive | 17.2 | substantial inhibitory activities | 15.1 ± 4.6 |  |  | Mechanism of inhibition (laccases [1]; listed as mercaptopurine): competitive mode; Ki (A. oryzae laccase [4]; listed as mercaptopurine): 15 µM |
| Nc1nc2nc[nH]c2c(=S)[nH]1 [compound 2, thioguanine] | Competitive | 26.2 | substantial inhibitory activities | 21.2 ± 1.7 |  |  | Mechanism of inhibition (laccases [1]; listed as thioguanine): competitive mode; Ki (A. oryzae laccase [4]; listed as thioguanine): 21 µM |
| C[C@H](CS)C(=O)N1CCC[C@H]1C(=O)O [compound 11, captopril] | Competitive | 32.4 | substantial inhibitory activities | 26.3 ± 2.4 |  |  | Mechanism of inhibition (laccases [1]; listed as captopril): competitive mode; inhibition of tyrosinase activity (mushroom tyrosinase [5]): inhibits tyrosinase activity; inhibition of tyrosinase (words, literature) (mushroom tyrosinase [6]): slightly inhibited; Ki (A. oryzae laccase [4]; listed as captopril): 26 µM |
| O=c1cc(CO)occ1O [compound 12, kojic acid] |  |  |  | > 1000 |  |  |  |
| Cn1cc[nH]c1=S [compound 16, methimazole] |  |  |  |  |  |  | inhibition of DBH at single concentration ([7]; 50 µM): neither methimazole nor other thione-containing test molecules significantly inhibited DBH |
| OCC(S)CS (stereo not drawn) [compound 18, dimercaptopropanol] | Competitive | 18 | substantial inhibitory activities | 18.6 ± 3.3 | moderate inhibition | 57.9 ± 7.6 | Mechanism of inhibition (laccases [1]; listed as dimercaptopropanol): competitive mode; Ki (A. oryzae laccase [4]; listed as dimercaptopropanol): 18 µM |
| O=C(O)C(S)C(S)C(=O)O (stereo not drawn) [compound 19, dimercaptosuccinate] | Competitive | 13.1 | substantial inhibitory activities | 37.3 ± 5.6 |  |  | Mechanism of inhibition (laccases [1]; listed as dimercaptosuccinate): competitive mode; Ki (A. oryzae laccase [4]; listed as dimercaptosuccinate): 37 µM |
| NC(=S)Nc1ccccc1 [compound 24, phenylthiourea (PTU)] |  |  |  | > 1000 |  |  |  |
| O=c1cccccc1O [compound 26, tropolone] |  |  |  | > 1000 | significantly decreased DBH activity | 9.3 ± 5.5 |  |
| [N-]=[N+]=[N-].[Na+] [compound 27, sodium azide] |  |  |  | 3.1 ± 1.7 | moderate inhibition | 70.6 ± 11.6 | Ki (T. versicolor laccase): 4.2 ± 1.3 µM; Ki (T. versicolor laccase; listed as sodium azide): 4 µM; Ki (ceruloplasmin): 1.6 ± 0.3 µM; Ki (A. oryzae laccase [4]; listed as sodium azide): 3 µM |
| [NH4+].[NH4+].[SH-].[SH-].[S]=[Mo]=[S] [compound 28, ammonium tetrathiomolybdate (ATMD)] |  |  |  | 10.5 ± 2.5 | significantly decreased DBH activity | 23.7 ± 2.7 | Ki (T. versicolor laccase): 12.3 ± 1.3 µM; Ki (T. versicolor laccase; listed as AMTD): 12 µM; Ki (ceruloplasmin): 10.9 ± 1.4 µM; Ki (A. oryzae laccase [4]; listed as AMTD): 10 µM |
